Laboratory results: ChEMBL document CHEMBL1201862, “PubChem BioAssay data set” (2004)
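Tested at 5 concentrations; 48 h exposure; 96-well plates; endpoints linearly interpolated, else capped at highest concentration. At the GI50, growth is halved.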 The source made the active and inactive calls. Cut-off read from the data, not from the text of the source: active = GI50 up to about 1.1 µM and inactive = higher.

What was measured:
Assay in all cases: NCI anticancer screen, dose series, 48 h
HCC 2998 = tested on: HCC 2998
COLO 205 = tested on: COLO 205
M19-MEL = tested on: M19-MEL
IGROV-1 = tested on: IGROV-1
ACHN = tested on: ACHN
M14 = tested on: M14
SW-620 = tested on: SW-620
NCI-H226 = tested on: NCI-H226
HOP-18 = tested on: HOP-18
LXFL 529 = tested on: LXFL 529
DMS-114 = tested on: DMS-114
UACC-257 = tested on: UACC-257
SK-MEL-28 = tested on: SK-MEL-28
SNB-19 = tested on: SNB-19
CAKI-1 = tested on: CAKI-1
HCT-15 = tested on: HCT-15
HT-29 = tested on: HT-29
HOP-62 = tested on: HOP-62
HCT-116 = tested on: HCT-116
Malme-3M = tested on: Malme-3M
OVCAR-8 = tested on: OVCAR-8
EKVX = tested on: EKVX
SF-295 = tested on: SF-295
U-251 = tested on: U-251
OVCAR-4 = tested on: OVCAR-4
SK-MEL-2 = tested on: SK-MEL-2
KM-20L2 = tested on: KM-20L2
DLD-1 = tested on: DLD-1
UACC-62 = tested on: UACC-62
KM12 = tested on: KM12
UO-31 = tested on: UO-31
SNB-78 = tested on: SNB-78
SNB-75 = tested on: SNB-75
SF-539 = tested on: SF-539
RXF 393 = tested on: RXF 393
SF-268 = tested on: SF-268
A498 = tested on: A498
A549 = tested on: A549
SK-OV-3 = tested on: SK-OV-3
OVCAR-3 = tested on: OVCAR-3
SN12C = tested on: SN12C
NCI-H23 = tested on: NCI-H23
786-0 = tested on: 786-0
NCI-H460 = tested on: NCI-H460
RPMI-8226 = tested on: RPMI-8226
OVCAR-5 = tested on: OVCAR-5
HOP-92 = tested on: HOP-92
DMS-273 = tested on: DMS-273
TK-10 = tested on: TK-10
SR = tested on: SR
NCI-H522 = tested on: NCI-H522
HL-60 = tested on: HL-60
CCRF-CEM = tested on: CCRF-CEM
MOLT-4 = tested on: MOLT-4
K562 = tested on: K562
SK-MEL-5 = tested on: SK-MEL-5
LOX IMVI = tested on: LOX IMVI

Cc1ccc(NC(=O)OCC(COc2ccc(Cl)cc2Cl)OC(=O)Nc2ccc(C)cc2)cc1 (centres undefined)
GI50 (HCC 2998): > 100 µM (inactive) | GI50 (COLO 205): > 100 µM (inactive) | GI50 (M19-MEL): > 100 µM (inactive) | GI50 (IGROV-1): > 100 µM (inactive) | GI50 (ACHN): > 100 µM (inactive) | GI50 (M14): > 100 µM (inactive) | GI50 (SW-620): > 100 µM (inactive) | GI50 (NCI-H226): 46.3 µM (inactive) | GI50 (HOP-18): 69.5 µM (inactive) | GI50 (LXFL 529): 81.5 µM (inactive) | GI50 (DMS-114): > 100 µM (inactive) | GI50 (UACC-257): > 100 µM (inactive) | GI50 (SK-MEL-28): > 100 µM (inactive) | GI50 (SNB-19): 47.6 µM (inactive) | GI50 (CAKI-1): < 0.01 µM (active) | GI50 (HCT-15): > 100 µM | GI50 (HT-29): > 100 µM (inactive) | GI50 (HOP-62): > 100 µM (inactive) | GI50 (HCT-116): > 100 µM (inactive) | GI50 (Malme-3M): > 100 µM (inactive) | GI50 (OVCAR-8): 12.5 µM (inactive) | GI50 (EKVX): > 100 µM (inactive) | GI50 (SF-295): > 100 µM (inactive) | GI50 (U-251): 34.8 µM (inactive) | GI50 (OVCAR-4): 33.2 µM (inactive) | GI50 (SK-MEL-2): > 100 µM (inactive) | GI50 (KM-20L2): > 100 µM (inactive) | GI50 (DLD-1): > 100 µM (inactive) | GI50 (UACC-62): > 100 µM (inactive) | GI50 (KM12): > 100 µM (inactive) | GI50 (UO-31): 66.2 µM (inactive) | GI50 (SNB-78): > 100 µM (inactive) | GI50 (SNB-75): 27 µM (inactive) | GI50 (SF-539): 89.5 µM (inactive) | GI50 (RXF 393): 79.4 µM (inactive) | GI50 (SF-268): > 100 µM (inactive) | GI50 (A498): > 100 µM (inactive) | GI50 (A549): > 100 µM (inactive) | GI50 (SK-OV-3): > 100 µM (inactive) | GI50 (OVCAR-3): 80.2 µM (inactive) | GI50 (SN12C): > 100 µM (inactive) | GI50 (NCI-H23): > 100 µM (inactive) | GI50 (786-0): 64.6 µM (inactive) | GI50 (NCI-H460): > 100 µM (inactive) | GI50 (RPMI-8226): > 100 µM (inactive) | GI50 (OVCAR-5): > 100 µM (inactive) | GI50 (HOP-92): 53.7 µM (inactive) | GI50 (DMS-273): > 100 µM (inactive)

CN(C)C(=S)/N=c1\ss/c(=N\C(=S)N(C)C)n1Cc1ccco1
GI50 (HCC 2998): > 100 µM (inactive) | GI50 (COLO 205): > 100 µM (inactive) | GI50 (M19-MEL): > 100 µM (inactive) | GI50 (TK-10): > 100 µM (inactive) | GI50 (IGROV-1): > 100 µM (inactive) | GI50 (ACHN): > 100 µM (inactive) | GI50 (SR): > 100 µM (inactive) | GI50 (M14): > 100 µM (inactive) | GI50 (NCI-H522): > 100 µM (inactive) | GI50 (SW-620): > 100 µM (inactive) | GI50 (NCI-H226): > 100 µM (inactive) | GI50 (HOP-18): > 100 µM (inactive) | GI50 (LXFL 529): > 100 µM (inactive) | GI50 (DMS-114): > 100 µM (inactive) | GI50 (UACC-257): > 100 µM (inactive) | GI50 (SK-MEL-28): > 100 µM (inactive) | GI50 (SNB-19): > 100 µM (inactive) | GI50 (CAKI-1): > 100 µM (inactive) | GI50 (HCT-15): > 100 µM | GI50 (HOP-62): > 100 µM (inactive) | GI50 (HCT-116): > 100 µM (inactive) | GI50 (Malme-3M): > 100 µM (inactive) | GI50 (OVCAR-8): > 100 µM (inactive) | GI50 (HL-60): > 100 µM (inactive) | GI50 (U-251): > 100 µM (inactive) | GI50 (OVCAR-4): > 100 µM (inactive) | GI50 (CCRF-CEM): > 100 µM (inactive) | GI50 (SK-MEL-2): > 100 µM (inactive) | GI50 (KM-20L2): > 100 µM (inactive) | GI50 (MOLT-4): > 100 µM (inactive) | GI50 (DLD-1): > 100 µM (inactive) | GI50 (UACC-62): > 100 µM (inactive) | GI50 (KM12): > 100 µM (inactive) | GI50 (UO-31): > 100 µM (inactive) | GI50 (SNB-78): > 100 µM (inactive) | GI50 (K562): > 100 µM (inactive) | GI50 (SNB-75): > 100 µM (inactive) | GI50 (SF-539): > 100 µM (inactive) | GI50 (RXF 393): > 100 µM (inactive) | GI50 (SF-268): > 100 µM (inactive) | GI50 (A498): > 100 µM (inactive) | GI50 (A549): > 100 µM (inactive) | GI50 (SK-OV-3): > 100 µM (inactive) | GI50 (SK-MEL-5): > 100 µM (inactive) | GI50 (SN12C): > 100 µM (inactive) | GI50 (786-0): > 100 µM (inactive) | GI50 (NCI-H460): > 100 µM (inactive) | GI50 (RPMI-8226): > 100 µM (inactive) | GI50 (DMS-273): > 100 µM (inactive)

CN(C)CC(C)(C)/C(=N\Nc1ccccc1)c1ccccc1
GI50 (COLO 205): 64.3 µM (inactive) | GI50 (LOX IMVI): 14.6 µM (inactive) | GI50 (M19-MEL): 82.2 µM (inactive) | GI50 (TK-10): 22.7 µM (inactive) | GI50 (IGROV-1): 36.4 µM (inactive) | GI50 (ACHN): 20.1 µM (inactive) | GI50 (M14): 21.9 µM (inactive) | GI50 (NCI-H522): 44.3 µM (inactive) | GI50 (SW-620): 29.1 µM (inactive) | GI50 (HOP-18): 35 µM (inactive) | GI50 (LXFL 529): 18.7 µM (inactive) | GI50 (DMS-114): 46.7 µM (inactive) | GI50 (UACC-257): 51.6 µM (inactive) | GI50 (SK-MEL-28): 39.9 µM (inactive) | GI50 (SNB-19): > 100 µM (inactive) | GI50 (HCT-15): 16.2 µM | GI50 (HT-29): 35.9 µM (inactive) | GI50 (HOP-62): 45.2 µM (inactive) | GI50 (HCT-116): 68.4 µM (inactive) | GI50 (Malme-3M): 46.8 µM (inactive) | GI50 (OVCAR-8): 99.8 µM (inactive) | GI50 (EKVX): 47.2 µM (inactive) | GI50 (HL-60): 21 µM (inactive) | GI50 (SF-295): 21.1 µM (inactive) | GI50 (U-251): 37.4 µM (inactive) | GI50 (OVCAR-4): 45.4 µM (inactive) | GI50 (CCRF-CEM): 29.7 µM (inactive) | GI50 (SK-MEL-2): 58.1 µM (inactive) | GI50 (KM-20L2): 16.8 µM (inactive) | GI50 (MOLT-4): 46.3 µM (inactive) | GI50 (DLD-1): 30.4 µM (inactive) | GI50 (UACC-62): 14.8 µM (inactive) | GI50 (KM12): 43.3 µM (inactive) | GI50 (UO-31): 12.3 µM (inactive) | GI50 (SNB-78): 70.1 µM (inactive) | GI50 (K562): 28.1 µM (inactive) | GI50 (SNB-75): 37.1 µM (inactive) | GI50 (SF-539): 24.6 µM (inactive) | GI50 (RXF 393): 37.3 µM (inactive) | GI50 (SF-268): 31.8 µM (inactive) | GI50 (A498): 82.8 µM (inactive) | GI50 (A549): 92.5 µM (inactive) | GI50 (SK-OV-3): 21.8 µM (inactive) | GI50 (SK-MEL-5): 70 µM (inactive) | GI50 (OVCAR-3): 54.8 µM (inactive) | GI50 (SN12C): 48.8 µM (inactive) | GI50 (NCI-H23): > 100 µM (inactive) | GI50 (786-0): 45.3 µM (inactive) | GI50 (NCI-H460): 53.3 µM (inactive) | GI50 (RPMI-8226): 10.3 µM (inactive) | GI50 (OVCAR-5): 46.6 µM (inactive) | GI50 (DMS-273): 33.5 µM (inactive)
